Assay results from patent US10696615B2, “Prenylated hydroxystilbenes” (The University of Sydney, priority 2011, dated 2020).

Columns and labels:
Assay type in all cases: cell-based, human
[1] = system: TK-10; test: NCI in vitro cancer screen, Renal Cancer; settings: TK-10, unit not printed (M)
[2] = system: SK-MEL-28; test: NCI in vitro cancer screen, Melanoma; settings: SK-MEL-28, unit not printed (M)
[3] = system: K-562; test: NCI in vitro cancer screen, Leukemia; settings: K-562, unit not printed (M)
[4] = system: SF-295; test: NCI in vitro cancer screen, CNS Cancer; settings: SF-295, unit not printed (M)
[5] = system: OVCAR-3; test: NCI in vitro cancer screen, Ovarian Cancer; settings: OVCAR-3, unit not printed (M)
[6] = system: NCI-H322M; test: NCI in vitro cancer screen, Non-Small Cell Lung Cancer; settings: unit not printed (M)
[7] = system: HT29; test: NCI in vitro cancer screen, Colon Cancer; settings: HT29, unit not printed (M)
[8] = system: T-47D; test: NCI in vitro cancer screen, Breast Cancer; settings: unit not printed (M)
[9] = system: MCF7; test: NCI in vitro cancer screen, Breast Cancer; settings: MCF7, unit not printed (M)
[10] = system: SK-MEL-2; test: NCI in vitro cancer screen, Melanoma; settings: SK-MEL-2, unit not printed (M)
[11] = system: NCI-H460; test: NCI in vitro cancer screen, Non-Small Cell Lung Cancer; settings: NCI-H460, unit not printed (M)
[12] = system: ACHN; test: NCI in vitro cancer screen, Renal Cancer; settings: unit not printed (M)
[13] = system: UACC-62; test: NCI in vitro cancer screen, Melanoma; settings: UACC-62, unit not printed (M)
[14] = system: PC-3; test: NCI in vitro cancer screen, Prostate Cancer; settings: PC-3, unit not printed (M)
[15] = system: SNB-19; test: NCI in vitro cancer screen, CNS Cancer; settings: SNB-19, unit not printed (M)
[16] = system: SNB-75; test: NCI in vitro cancer screen, CNS Cancer; settings: SNB-75, unit not printed (M)
[17] = system: U251; test: NCI in vitro cancer screen, CNS Cancer; settings: U251, unit not printed (M)
[18] = system: SK-OV-3; test: NCI in vitro cancer screen, Ovarian Cancer; settings: SK-OV-3, unit not printed (M)
[19] = system: NCI-H23; test: NCI in vitro cancer screen, Non-Small Cell Lung Cancer; settings: NCI-H23, unit not printed (M)
[20] = system: OVCAR-8; test: NCI in vitro cancer screen, Ovarian Cancer; settings: OVCAR-8, unit not printed (M)
[21] = system: A549/ATCC; test: NCI in vitro cancer screen, Non-Small Cell Lung Cancer; settings: unit not printed (M)
[22] = system: SW-620; test: NCI in vitro cancer screen, Colon Cancer; settings: SW-620, unit not printed (M)
[23] = system: KM12; test: NCI in vitro cancer screen, Colon Cancer; settings: KM12, unit not printed (M)
[24] = system: DU-145; test: NCI in vitro cancer screen, Prostate Cancer; settings: DU-145, unit not printed (M)
[25] = system: RXF-393; test: NCI in vitro cancer screen, Renal Cancer; settings: Homo sapiens, RXF 393, unit not printed (M)
[26] = system: OVCAR-5; test: NCI in vitro cancer screen, Ovarian Cancer; settings: OVCAR-5, unit not printed (M)
[27] = system: MDA-MB-468; test: NCI in vitro cancer screen, Breast Cancer; settings: MDA-MB-468, unit not printed (M)
[28] = system: MDA-MB-435; test: NCI in vitro cancer screen, Melanoma; settings: MDA-MB-435, unit not printed (M)
[29] = system: UO-31; test: NCI in vitro cancer screen, Renal Cancer; settings: UO-31, unit not printed (M)
[30] = system: SK-MEL-5; test: NCI in vitro cancer screen, Melanoma; settings: SK-MEL-5, unit not printed (M)
[31] = Homo sapiens, read-out: LC50 (the source's name)

COc1cc(/C=C/c2cc(O)cc(O)c2CC=C(C)C)ccc1O [USYDS10, (E)-2-(3-methyl-2-buten-1-yl)-3,4′,5-trihydroxy-3′-methoxystilbene]
GI50 ([1]; Homo sapiens): 9.55 µM
LC50 ([1]; Homo sapiens): > 100 µM
TGI [1]: 5.15E−5
GI50 ([2]; Homo sapiens): 0.572 µM
LC50 ([2]; Homo sapiens): 43 µM
TGI [2]: 1.69E−5
GI50 ([3]; Homo sapiens, K562): 0.386 µM
CC50 ([3]; Homo sapiens, K562, read-out: LC50 (the source's name)): > 100 µM
TGI [3]: 3.17E−5
GI50 ([4]; Homo sapiens): 2.01 µM
CC50 [4, 31]: > 100 µM
TGI [4]: 1.91E−5
GI50 ([5]; Homo sapiens): 0.372 µM
CC50 [5, 31]: > 100 µM
TGI [5]: 2.03E−5
GI50 ([6]; Homo sapiens): 11.8 µM
LC50 (50% lethal concentration) ([6]; Homo sapiens): 83.7 µM
TGI [6]: 3.14E−5
TGI [7]: 2.13E−5
GI50 ([7]; Homo sapiens, HT-29): 5.72 µM
CC50 ([7]; Homo sapiens, HT-29, read-out: LC50 (the source's name)): 69 µM
GI50 ([8]; Homo sapiens, T47D): 1.47 µM
CC50 ([8]; Homo sapiens, T47D, read-out: LC50 (the source's name)): > 100 µM
TGI [8]: 2.47E−5
GI50 ([9]; Homo sapiens): 0.332 µM
CC50 [9, 31]: 50.6 µM
TGI [9]: 1.30E−5
GI50 ([10]; Homo sapiens): 0.576 µM
LC50 ([10]; Homo sapiens): > 100 µM
TGI [10]: 3.26E−5
GI50 ([11]; Homo sapiens): 0.381 µM
CC50 [11, 31]: 66.1 µM
TGI [11]: 1.29E−5
GI50 ([12]; Homo sapiens): 0.903 µM
CC50 [12, 31]: > 100 µM
TGI [12]: 3.79E−5
GI50 ([13]; Homo sapiens): 0.521 µM
CC50 [13, 31]: 42.8 µM
TGI [13]: 1.55E−5
GI50 ([14]; Homo sapiens): 2.27 µM
CC50 [14, 31]: > 100 µM
TGI [14]: 3.12E−5
GI50 ([15]; Homo sapiens): 0.613 µM
CC50 [15, 31]: > 100 µM
TGI [15]: 2.28E−5
GI50 ([16]; Homo sapiens): 0.236 µM
CC50 [16, 31]: 36.1 µM
TGI [16]: 1.22E−5
GI50 ([17]; Homo sapiens, U-251): 0.419 µM
CC50 ([17]; Homo sapiens, U-251, read-out: LC50 (the source's name)): 78.8 µM
TGI [17]: 1.62E−5
GI50 ([18]; Homo sapiens): 0.422 µM
CC50 [18, 31]: 34.2 µM
TGI [18]: 1.14E−5
GI50 ([19]; Homo sapiens): 0.38 µM
LC50 ([19]; Homo sapiens): 78.3 µM
TGI [19]: 1.52E−5
GI50 ([20]; Homo sapiens): 0.467 µM
CC50 [20, 31]: > 100 µM
TGI [20]: 6.50E−5
GI50 ([21]; Homo sapiens): 0.66 µM
CC50 [21, 31]: > 100 µM
TGI [21]: 2.25E−5
GI50 ([22]; Homo sapiens): 0.362 µM
CC50 [22, 31]: 85.5 µM
TGI [22]: 2.15E−5
GI50 ([23]; Homo sapiens): 0.497 µM
CC50 [23, 31]: 85.8 µM
TGI [23]: 1.53E−5
TGI [24]: 2.05E−5
GI50 ([24]; Homo sapiens): 0.442 µM
CC50 [24, 31]: > 100 µM
GI50 [25]: 0.221 µM
CC50 ([25]; read-out: LC50 (the source's name)): 37.6 µM
GI50 ([26]; Homo sapiens): 8.92 µM
CC50 [26, 31]: 83.1 µM
TGI [26]: 2.80E−5
GI50 ([27]; Homo sapiens): 0.373 µM
CC50 [27, 31]: 44.9 µM
TGI [27]: 1.44E−5
GI50 ([28]; Homo sapiens): 0.0385 µM
CC50 [28, 31]: > 100 µM
TGI [28]: 2.56E−7
GI50 ([29]; Homo sapiens): 0.878 µM
CC50 [29, 31]: 95.2 µM
TGI [29]: 2.17E−5
GI50 ([30]; Homo sapiens): 0.291 µM
CC50 [30, 31]: 36 µM
TGI [30]: 1.27E−5
